In US7071190B2, “Inhibitors to tubulin polymerization” (Rigel Pharmaceuticals, Inc., priority 2002, dated 2006):
“Also recorded” adds a separate entry of the source.

Key:
[1] = tested on: A549 (lung) tumors; experiment: A549 (lung) human tumor xenograft in nude mice; assay type: in vivo, NCr nude (nu/nu) female mice; conditions: for Increase in tumor volume at 35 days normalized to tumor volume at start of drug treatment: vehicle approximately 7-fold; for %T/C (mean tumor volume treated vs. control ×100): A549 xenografts
From the text: (§1) A nude mouse/human carcinoma model was used to examine the effect of tubulin inhibitors on tumor growth and animal survival. Groups of immune deficient (nude) mice were implanted subcutaneously with suspensions of the human tumor lines A549 (lung) and SW480 (colon). When palpable tumors appeared and were of a preselected volume (approximately 40–150 mm^3), animals were subdivided into various treatment groups such that the variation in mean tumor volume of each group was within 10%. The animals were then treated daily with either control vehicle or Compound 1 administered by intraperitonel injection. Twice weekly, the volume of the tumors in each animal in each group was measured to gather information on tumor growth (volume) as a function of time. Systemic toxicity was assessed by measuring individual animal body weights, and toxicity was evaluated by examination of differences in body weight gain as a function of time. Tumor volumes and body weights were monitored for up to 35 days after the beginning of treatment.
Cell Lines: Human tumor lines A549 (lung) and SW480 (colon) were grown in cell culture medium (F-11) containing 10% Fetal Bovine Serum (FBS). The cells were kept at 37° C. in a humidified 5% CO2/air incubator. Antibiotics were not added to the medium.
NCr nude (nu/nu) female mice, age 3–4 weeks, were purchased from Taconic (Germantown, N.Y.). The animals were housed ten per cage in sterile filter-topped cages in ventilated cage racks and Microisolator™ cages. Upon arrival, they were quarantined for at least four working days before use. Temperature was maintained at 72±5° F. (19–24° C.) and relative humidity at 35–70%, and a 12-hour light/dark cycle was used. The mice were fed sterile, autoclavable, certified, Purina rodent chow ad libitum. Drinking water was also autoclaved.
After the animals were released from quarantine, the mice were injected subcutaneously in the right flank with either 5×10^6 A549 cells or 5×10^6 SW480 cells in complete medium at an injection volume of 0.1 ml. Tumor dimensions and body weights were measured two times per week. Vernier calipers were used to measure tumors in two planes, and tumor volume (V) was calculated as follows: V=(xy^2)/2,
The test articles were administered intraperitoneally generally at a dose level of 10 mg/kg. When the solubility of a molecule of the invention was relatively low, we used relatively higher levels of organic co-solvents for preparation of the dosing solution. The “vehicle” of the invention comprised of 7.1% ethanol/35.8% PEG400/57.1% phosphate buffer (v/v/v).
When the tumor volumes reached a predetermined size (mean tumor volume between about 40–150 mm^3), animals were added randomly to treatment groups of 12 mice each as follows: Animals were treated daily with the vehicle or Compound 1 (10 mg/kg), or with the positive control drug (Taxol) administered by intraperitoneal injection at the maximum tolerated dose of 20 mg/kg every fourth day, on Days 1, 4, 7, and 10.
The tumor volumes of the animals were monitored for evidence of shrinkage or growth delay for a period of up to 35 days after the start of treatment. Response to treatment was measured in two ways, depending on the tumor response to treatment. The first was the optimum T/C (%), calculated as follows: For each day the tumors were measured, the changes in median tumor volume (V) for each treated (T) and control (C) group were determined by subtracting the […] tumor volume on the first day of treatment (Day 0) from the median tumor volume on the specific observation day. These values were used to express a percent difference in size, [% T/C=(T/C)×100]. The minimum value is designated the optimum response to treatment. A value of 42% or less is considered active by National Cancer Institute (NCI) standards. […]

[2] = tested on: SW480 tumors; experiment: SW480 (colon) human tumor xenograft in nude mice; assay type: in vivo, NCr nude (nu/nu) female mice; conditions: 10 mg/kg daily intraperitoneal
From the text: as §1, with “treatment. […]” for “treatment.”
After the animals were released from quarantine, the mice were injected subcutaneously in the right flank with either 5×10^6 A549 cells or 5×10^6 SW480 cells in complete medium at an injection volume of 0.1 ml. Tumor dimensions and body weights were measured two times per week. […]

[3] = tested on: MAP-rich tubulin protein from bovine brain; experiment: Tubulin polymerization turbidity assay (A340 over time); assay type: biochemical; conditions: 10 μM compound, FIG. 1 (a), (b)
Description: FIG. 1. Tubulin polymerization inhibitory activity of the compounds of the invention was assayed by following the turbidity of a tubulin-containing solution over time. Polymerization of tubulin generates microtubules, the presence of which increases the absorbance of the assay solution over time. Effective inhibition manifests as a reduction of rate of absorbance increase at 340 nanometers. (a) 10 μM of compounds 19, 39, 43, 54 and 62, as well as 10 μM nocodazole as a positive control and DMSO as a negative control. (b) 10 μM of compounds 1, 88, 95, and 54, as well as 10 μM as well a positive controls 1 and 2 and DMSO as a negative control. (c) 0.4, 2.0 and 10 μM compound 54 versus 0.4, 2.0 and 10 μM nocodazole as a positive control and DMSO as a negative control.
Measurement of the tubulin polymerization can be achieved using known methodologies. For example, assays for tubulin polymerization may be performed using a kit from Cytoskeleton (Denver, Colo.) and as described by Tahir, S. K., et al, (2001) Cancer Res., 61:5480–5.
The assay measures tubulin polymerization as an increase in turbidity (A340) over time. Assays for tubulin polymerization were performed using a kit from Cytoskeleton (Denver, Colo.) and as described by Tahir, S. K., et al, (2001) Cancer Res., 61: 5480–5, incorporated herein by reference, and as described below.
To determine the ability of the compounds to inhibit microtubule polymerization in vitro, the following protocol was followed: (i) 70 μl ice-cold MAP-rich tubulin protein from bovine brain (1.5 mg/ml final concentration) was added to polymerization buffer (80 mM PIPES pH6.8, 1 mM EGTA, 1 mM MgCl2, 1 mM GTP) in a quartz microcuvette; (ii) 0.7 μl of DMSO or 100X stock of control (nocodazole) or test compound (thienopyrimidine) in DMSO were added to the cuvette; (iii) the contents were mixed by pipefting gently; (iv) the polymerization reaction was initiated by placing the cuvette in pre-warmed (37° C.) cuvette holder in Beckman spectrophotometer; (v) the absorbance was monitored at 340 nm at 30 second intervals for 20 minutes. Tubulin polymerization result in increased turbidity in the reaction solution, which is registered as an increase in absorbance at 340 nm. Inhibitors of tubulin polymerization are detected by a reduction in the rate, the initial slope, and/or extent of the turbidity change (i.e., max. absorbance at 340 nm) in plots of ΔA340 versus time.

[4] = tested on: A549 cells; experiment: Bromodeoxyuridine (BrdU) proliferation assay; assay type: cell-based, human
Description: In order to determine the antiproliferative activity of microtubule inhibitors, A549 cells were plated in 96 well plates at 2000 cells/well 24 hours prior to the addition of a compound of the invention in 80 ul growth media (F12K, 10% FBS, Pen/Strep). Prior to addition to cells, compounds were solubilized in 100% DMSO to 5 mM and serially diluted in 6 semi-log steps in 100% DMSO. The diluted compounds were added to cells by two 15.8-fold dilution steps, the first being a dilution into a 23% ethanol/H2O mixture and the second being a dilution into growth media. Finally, these dilutions were followed by a 1:1 dilution onto cells. The resulting final solvent concentration was 0.2% DMSO/0.75% ethanol. Compounds were tested at final concentrations of 10, 3, 1, 0.3, 0.1 and 0.03 uM. Forty-eight hours after the addition of compound, the effects on cellular proliferation were measured using a cell proliferation BrdU ELISA (Roche Molecular Biochemicals, Cat.#1 669 915).

IC50 ([4]; Homo sapiens, A549, 48 h, BrdU ELISA 48 hours after addition of compound, tested 0.03-10 uM, cell line not given (A549 method; SW-480 and MDA-MB-231 also used), read-out: Assay Result (IC50μM)) [µM]	SMILES	Increase in tumor volume at 35 days normalized to tumor volume at start of drug treatment ([1]; A549 xenograft, 20 mg/kg intraperitoneal every fourth day (Days 1, 4, 7, 10)) [fold]	%T/C (mean tumor volume treated vs. control ×100) ([1]; 20 mg/kg intraperitoneal every fourth day) [%]	Increase in tumor volume at 35 days normalized to tumor volume at start of drug treatment ([1]; A549 xenograft, 10 mg/kg daily intraperitoneal) [fold]	Mean tumor volume after 27 days of treatment ([1]; A549 xenograft, 10 mg/kg daily, vehicle control 346.9±164.7 mm^3) [mm^3]	Effect on tumor growth ([1]; A549 xenograft, Compound 1 10 mg/kg daily intraperitoneal, 10 mg/kg)	%T/C (mean tumor volume treated vs. control ×100) ([1]; 10 mg/kg daily intraperitoneal) [%]	Effect on tumor size [2]	Tumor volume ([2]; controls 677.9±574.3 mm^3) [mm^3]	Inhibition of tubulin polymerization (reduction of rate of absorbance increase at 340 nanometers) [3]	Activity ranking: most active compounds of the invention ([4]; antiproliferative activity)	Activity ranking: particularly active examples of the compounds of the invention ([4]; antiproliferative activity)
	CC(=O)O[C@H]1C(=O)[C@@]2(C)[C@H]([C@H](OC(=O)c3ccccc3)[C@]3(O)C[C@H](OC(=O)[C@H](O)[C@@H](NC(=O)c4ccccc4)c4ccccc4)C(C)=C1C3(C)C)[C@]1(OC(C)=O)CO[C@@H]1C[C@@H]2O [Taxol, reference compound]	4	59									
0.664	S=C(NNc1ncnc2cc(-c3ccccc3)sc12)Nc1ccccc1 [Compound 1]			4	223.8±164.1	slowed tumor growth substantially; also recorded: substantial suppression of tumor growth	65	did not result in a reduced tumor size	647.7±500.6	Inhibition activity is observed	most active	particularly active
